Measured values as given in publication PMC3510438, “The transmembrane tyrosines Y56, Y91 and Y167 play important roles in determining the affinity and transport rate of the rabbit proton-coupled peptide transporter PepT1” (The International Journal of Biochemistry & Cell Biology, 2009).

Molecular target: T1, Y91F-rPepT1 (Oryctolagus cuniculus, UniProt P36836, Y91F)
T1 construct: expressed in transfected cells; host or cells: Xenopus laevis oocytes injected with cRNA
T1 sequence (P36836 1-707 Y91F): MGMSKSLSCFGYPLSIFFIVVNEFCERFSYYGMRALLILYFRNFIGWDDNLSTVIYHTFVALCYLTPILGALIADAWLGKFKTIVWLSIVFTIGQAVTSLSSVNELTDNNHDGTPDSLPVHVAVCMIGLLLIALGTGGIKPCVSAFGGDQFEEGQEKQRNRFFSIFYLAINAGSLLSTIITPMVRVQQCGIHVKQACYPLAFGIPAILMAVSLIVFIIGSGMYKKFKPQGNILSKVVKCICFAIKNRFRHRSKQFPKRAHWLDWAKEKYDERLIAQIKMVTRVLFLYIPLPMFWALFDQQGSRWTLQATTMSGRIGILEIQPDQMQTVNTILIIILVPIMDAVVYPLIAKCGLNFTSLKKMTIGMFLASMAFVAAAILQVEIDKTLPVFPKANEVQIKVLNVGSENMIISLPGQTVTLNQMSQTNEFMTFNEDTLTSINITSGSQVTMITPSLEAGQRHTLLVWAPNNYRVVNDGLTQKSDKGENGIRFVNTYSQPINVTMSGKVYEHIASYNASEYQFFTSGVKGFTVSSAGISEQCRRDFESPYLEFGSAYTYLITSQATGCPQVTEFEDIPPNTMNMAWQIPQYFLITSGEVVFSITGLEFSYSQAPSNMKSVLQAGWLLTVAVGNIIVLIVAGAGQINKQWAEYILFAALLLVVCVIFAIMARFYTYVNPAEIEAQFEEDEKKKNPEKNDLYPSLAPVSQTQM
Assay: Uptake of tracer [3H]-D-Phe-L-Gln into Xenopus oocytes
Format: cell-based, rabbit
Conditions: corrected for surface expression; versus wild-type
Method: rPepT1 constructs were linearised with XbaI (New England Biolabs, UK) and cRNA generated by in vitro transcription (T7 mMessage mMachine, Ambion, Cambridgeshire, UK). Xenopus laevis oocytes were obtained under MS222 anaesthesia (0.2%, w/v) in accordance with the UK Animals (Scientific Procedures) Act, 1986, and maintained at 18 °C in modified Barth's medium (88 mM NaCl, 1 mM KCl, 0.82 mM MgSO4, 2.4 mM NaHCO3, 0.42 mM CaCl2, 10 mM Hepes, 5 mM sodium pyruvate, 50 μg ml^−1 gentamicin (Fluka, Poole, UK), adjusted to pH 7.6 with 1 M NaOH). Transport measurements were performed at least 72 h after micro-injection of oocytes with 27nl cRNA (1 μg/μl), with medium changed daily.
Uptake of [^3H]-D-Phe-L-Gln (17.4 Ci/mmole, custom synthesised, Cambridge Research Biochemicals, Stockton-on-Tees, UK) was performed as previously described ([Meredith, 2004]). […] After incubation, the oocytes were washed sequentially five times in 1 ml of ice-cold 120 mM NaCl solution, lysed individually with 100 μl 2% (w/v) SDS and liquid scintillation counted. […]
Luminometry assays were performed as described previously ([Panitsas et al., 2006]). […] Luminometer (Turner-Designs 20/20, Promega) readings for at least 15 oocytes per data point were taken immediately.

## [^3H]-D-Phe-L-Gln
  decrease in the rate of transport per protein molecule: 40%
